Molecules are shown by their SMILES.

The values below come from ChEMBL document CHEMBL4145588, “2,7-Diazaspiro[4,4]nonanes for the Treatment or Prevention of Cancers and Diabetes” (ACS Med Chem Lett, 2018).

This assay addresses T1, Menin (Homo sapiens, UniProt O00255).
T1 sequence (O00255 whole entry): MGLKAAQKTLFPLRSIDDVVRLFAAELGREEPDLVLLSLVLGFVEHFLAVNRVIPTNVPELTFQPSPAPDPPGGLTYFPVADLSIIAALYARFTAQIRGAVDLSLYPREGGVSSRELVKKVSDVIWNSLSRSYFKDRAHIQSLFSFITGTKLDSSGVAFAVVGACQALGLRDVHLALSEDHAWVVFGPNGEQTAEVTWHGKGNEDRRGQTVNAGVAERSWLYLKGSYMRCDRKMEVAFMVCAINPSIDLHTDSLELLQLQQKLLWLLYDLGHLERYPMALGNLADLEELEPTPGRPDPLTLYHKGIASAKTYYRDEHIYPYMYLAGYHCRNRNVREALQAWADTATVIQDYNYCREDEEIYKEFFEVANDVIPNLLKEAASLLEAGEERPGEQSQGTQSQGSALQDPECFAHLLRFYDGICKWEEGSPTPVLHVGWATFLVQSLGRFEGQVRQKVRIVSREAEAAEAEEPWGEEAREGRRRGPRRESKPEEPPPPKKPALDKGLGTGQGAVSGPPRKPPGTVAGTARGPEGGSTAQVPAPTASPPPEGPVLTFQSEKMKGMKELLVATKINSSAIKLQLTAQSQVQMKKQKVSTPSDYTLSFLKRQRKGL
Kind of assay: Inhibition of biotinylated MLL-1 derived biotinylated Btn-PEG2- PEG2-S-Nva-RWRFPARPGTT-Amide binding to recombinant full length N-terminal His-tagged menin (unknown origin) expressed in Escherichia coli incubated for 10 mins by TR-FRET assay. (TR-FRET usually uses a lanthanide donor and a delayed reading to cut background.)
A word on the IC50: it is the concentration that gives 50% inhibition. As for `N#CCc1ccc(CN2CCC3(CCN(c4ncnc5sc(CC(F)(F)F)cc45)C3)C2)cc1` (centres undefined), the IC50 was found to be 20 nM.

With `CC(c1ccc(CN2CCC3(CCN(c4ncnc5sc(CC(F)(F)F)cc45)C3)C2)cc1)S(N)(=O)=O` (centres undefined), the IC50 stood at 10 nM.

On to `FC(F)Cc1cc2c(N3CCC4(CCN(Cc5ccc(N6CCOCC6)cc5)C4)C3)ncnc2s1` (centres undefined), for which the IC50 came out at 10 nM.

For the compound `NS(=O)(=O)Cc1ccc(CN2CCC3(CCN(c4ncnc5cc(CC(F)(F)F)sc45)C3)C2)cc1` (centres undefined), the IC50 was 10 nM.

Consider `C=CC(=O)Nc1ccc(CN2CCC3(CCN(c4ncnc5sc(CC(F)(F)F)cc45)C3)C2)cc1` (centres undefined), for which the IC50 is 10 nM.

As for `CN(CCO)c1ccc(CN2CCC3(CCN(c4ncnc5sc(CC(F)(F)F)cc45)C3)C2)cc1` (centres undefined), the IC50 amounted to 10 nM.

On to `NS(=O)(=O)Cc1ccc(CN2CCC3(CCN(c4ncnc5sc(CC(F)(F)F)cc45)C3)C2)cc1` (centres undefined), for which the IC50 came to 4 nM.

Regarding `O=S(=O)(Cc1ccc(CN2CCC3(CCN(c4ncnc5sc(CC(F)(F)F)cc45)C3)C2)cc1)NCCO` (centres undefined), the IC50 worked out at 10 nM.

`CC(C)(C#N)c1ccc(CN2CCC3(CCN(c4ncnc5sc(CC(F)(F)F)cc45)C3)C2)cc1` (centres undefined): the IC50 was 20 nM.
